The values that follow come from PubChem BioAssay AID651855 (NMMLSC, 2012).

The source made the active and inactive calls.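 The calls were made as follows: active = compounds whose fitted concentration for half loss of dye binding is under 10 µM; inactive = the rest.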

Test system in one test: not listed separately
In words: interference with FAP-CCR5 fluorogen signal, dose response, counter-screen for beta2AR agonist project, cell-based, FAP-tagged human CCR5, Powderset3 (AID 651855). To be noted: FAP-tagged hCCR5 cells, MG2p fluorogen binding, flow cytometry; hits give high values. (The purpose of a counterscreen is to sort out artefacts and off-target activity.)
Consider `c1ccc(-c2nnc(SCc3nc4ccccc4[nH]3)n2Cc2ccco2)cc1`, for which the percent span was 15.8% (inactive).
Same read-out and setting: under `CCCCN(C(=O)c1ccc(NC(=O)C(C)C)cc1)c1ccccc1` stands 31.9% (inactive); under `Cc1ccc(OCc2nnc(SCc3nc4ccccc4[nH]3)n2Cc2ccco2)cc1`, 61.9% (inactive).
As for `CC(C)CNc1ncnc2c1sc1nc(N3CCOCC3)c3c(c12)CC(C)(C)OC3`, the percent span was -9.78% (inactive).
Same read-out and setting: next, `CCC(NC(=O)c1cc(COc2ccc(C)nc2)on1)c1ccc(C)cc1` (configuration not stated): 53.2% (inactive); `Cc1ccc(NC(=O)C(c2ccc(Cl)cc2)N2CCOCC2)cc1` (configuration not stated): 49.5% (inactive).
Still for that read-out and setting: under `CC(Oc1ccc(Cl)cc1Cl)c1nc(-c2ccc(NC(=O)c3ccco3)cc2)no1` (configuration not stated) stands 42.1% (inactive); under `Cc1ccc(-c2nc3ncccc3o2)cc1NC(=O)c1sc2ccccc2c1Cl`, 35.8% (inactive).
In the case of `COC(=O)c1ccc(CNC(=O)c2cc(COc3cncc(Cl)c3)on2)cc1`, the percent span is 28.2% (inactive).
Turning to `COCc1ccc(CN2CCCC(C(=O)Nc3ccc(-c4cccc(OC)c4)cc3)C2)o1` (configuration not stated), the percent span is 41.6% (inactive).
The same measure, in the same setting: next, `O=C(c1cc2c(=O)n3ccccc3nc2s1)N1CCN(Cc2ccc3c(c2)OCO3)CC1`: 39.7% (inactive); `CC1(C)Cc2c(c(N3CCOCC3)nc3sc4c(NCCN)ncnc4c23)CO1`: 116% (inactive); `O=C(NC1CCc2ccccc21)c1cc(COc2cncc(Cl)c2)on1` (configuration not stated): 4.03% (inactive).

In the next test the test system is FAP-tagged hCCR5 cells, MG2p fluorogen binding, flow cytometry. The test is described as above.
Settings: not given
With `Cc1ccc(Cn2ccc(NC(=O)c3cc4nc(-c5ccco5)cc(C(F)(F)F)n4n3)n2)cc1`, the EC50 (commonly the concentration giving half of the maximal effect) is 8.96 nM.
Still for that read-out and setting: under `C=CCn1c(CCNC(=O)c2cccs2)nnc1SCC(=O)c1ccc(Cl)cc1` stands 7.09 nM; under `CC(=O)Nc1ccc(S(=O)(=O)N2CCC(Oc3ccc(-n4cnnn4)cc3)CC2)cc1`, 60.9 nM.
Still for that read-out and setting: next, `Cc1ncc(CN2CCCC(C(=O)Nc3ccc(-c4cccc(F)c4)cc3)C2)s1` (configuration not stated): 1240 nM; `CC(Sc1nc(-c2ccccc2)cc(C(F)(F)F)n1)C(=O)N1CCCCC1` (configuration not stated): 25.5 nM.
For the compound `Cc1ccccc1N1CCN(c2ncnc3c2cnn3Cc2ccc(Cl)cc2)CC1`, the EC50 was 4330 nM.
The same measure, in the same setting: under `C=CCn1c(CCNC(=O)c2cccs2)nnc1SCC(=O)c1cccc([N+](=O)[O-])c1` stands 2.41 nM; under `CC(Oc1ccc(Cl)cc1Cl)c1nc(-c2ccc(NC(=O)c3ccccn3)cc2)no1` (configuration not stated), 427 nM.
Still for that read-out and setting: next, `CN(Cc1ccccc1)S(=O)(=O)c1ccc(NS(=O)(=O)Cc2ccccc2)cc1`: 106 nM.
Still for that read-out and setting: under `CC(Sc1nc(-c2ccccc2)cc(C(F)(F)F)n1)C(=O)N1CCOCC1` (configuration not stated) stands 26.9 nM; under `Cn1c(N2CCN(c3ccccn3)CC2)nc2c1c(=O)n(Cc1ccc(Cl)cc1)c(=O)n2C`, 20.9 nM.
`CC(C)Cc1nc2sc3c(NCc4ccco4)ncnc3c2c2c1COC(C)(C)C2`: the EC50 is 39.4 nM.
The same measure, in the same setting: under `COc1ccc(OC)c(CCNC(=O)C2CCN(c3nnc(-n4cccc4)s3)CC2)c1` stands 919 nM; under `C=CCn1c(CCNC(=O)c2cccs2)nnc1SCC(=O)c1ccc(Br)cc1`, 17.5 nM.
Same read-out and setting: under `CC1(C)Cc2c(c(N3CCCC3)nc3sc4c(N5CCN(CCO)CC5)ncnc4c23)CO1` stands 2960 nM; under `CSc1nc(SCCO)c2sc3nc(-c4ccco4)c4c(c3c2n1)CC(C)(C)OC4`, 1870 nM.
Still for that read-out and setting: next, `Clc1cccc(-c2nnc(SCc3nc4ccccc4[nH]3)n2Cc2ccco2)c1`: 10400 nM.
For the compound `Cc1ccc(OCc2cc(C(=O)N(C)Cc3cnn(-c4ccccc4C)c3)no2)cn1`, the EC50 was 110 nM.
As to `Clc1ccc(OCc2nnc(SCc3nc4ccccc4[nH]3)n2Cc2ccco2)cc1`, the EC50 was 10 nM.
